Our source for the AC50 values is ChEMBL document CHEMBL5291721, “A preclinical secondary pharmacology resource illuminates target-adverse drug reaction associations of marketed drugs” (Nat Commun, 2023).

Where a SMILES comes first, the peptide text is derived from it.

The target in one assay is T1, Progesterone receptor (Homo sapiens, UniProt P06401).
T1 sequence (P06401 whole entry): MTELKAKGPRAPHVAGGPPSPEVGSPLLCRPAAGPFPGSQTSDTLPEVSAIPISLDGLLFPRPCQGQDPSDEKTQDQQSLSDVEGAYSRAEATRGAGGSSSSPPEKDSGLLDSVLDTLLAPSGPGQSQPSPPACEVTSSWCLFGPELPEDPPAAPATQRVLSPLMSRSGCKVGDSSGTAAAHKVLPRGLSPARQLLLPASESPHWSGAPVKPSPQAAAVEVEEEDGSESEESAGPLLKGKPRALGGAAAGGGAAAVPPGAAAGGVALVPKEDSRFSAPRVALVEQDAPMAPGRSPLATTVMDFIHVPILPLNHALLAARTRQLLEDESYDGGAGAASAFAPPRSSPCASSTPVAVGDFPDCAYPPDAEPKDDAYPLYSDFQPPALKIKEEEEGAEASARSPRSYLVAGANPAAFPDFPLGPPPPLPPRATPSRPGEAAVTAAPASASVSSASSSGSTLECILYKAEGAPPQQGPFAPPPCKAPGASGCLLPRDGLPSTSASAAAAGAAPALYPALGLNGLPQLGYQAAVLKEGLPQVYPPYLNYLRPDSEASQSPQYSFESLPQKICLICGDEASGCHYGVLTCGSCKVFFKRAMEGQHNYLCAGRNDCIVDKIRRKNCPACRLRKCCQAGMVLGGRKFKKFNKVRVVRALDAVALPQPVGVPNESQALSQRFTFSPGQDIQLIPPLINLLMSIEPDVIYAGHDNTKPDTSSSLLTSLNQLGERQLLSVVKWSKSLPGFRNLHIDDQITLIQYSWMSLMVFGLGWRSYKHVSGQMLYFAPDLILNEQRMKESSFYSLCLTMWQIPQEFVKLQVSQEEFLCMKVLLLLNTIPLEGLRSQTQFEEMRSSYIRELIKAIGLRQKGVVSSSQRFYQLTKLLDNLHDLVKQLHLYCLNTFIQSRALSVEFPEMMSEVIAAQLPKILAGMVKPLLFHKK
It counts as functional.

Assay [1] deals with Glutamate receptor ionotropic, NMDA 1 (Rattus norvegicus, UniProt P35439).
Assay [2] addresses Beta-2 adrenergic receptor (Homo sapiens, UniProt P07550).
For assay [3], the target named is Sodium-dependent dopamine transporter (Homo sapiens, UniProt Q01959).
In assay [4] the target is Voltage-dependent L-type calcium channel subunit alpha-1C (Rattus norvegicus, UniProt P22002). It counts as functional.
In assay [5] the target is T2, Alpha-2B adrenergic receptor (Homo sapiens, UniProt P18089).
T2 sequence (P18089 whole entry): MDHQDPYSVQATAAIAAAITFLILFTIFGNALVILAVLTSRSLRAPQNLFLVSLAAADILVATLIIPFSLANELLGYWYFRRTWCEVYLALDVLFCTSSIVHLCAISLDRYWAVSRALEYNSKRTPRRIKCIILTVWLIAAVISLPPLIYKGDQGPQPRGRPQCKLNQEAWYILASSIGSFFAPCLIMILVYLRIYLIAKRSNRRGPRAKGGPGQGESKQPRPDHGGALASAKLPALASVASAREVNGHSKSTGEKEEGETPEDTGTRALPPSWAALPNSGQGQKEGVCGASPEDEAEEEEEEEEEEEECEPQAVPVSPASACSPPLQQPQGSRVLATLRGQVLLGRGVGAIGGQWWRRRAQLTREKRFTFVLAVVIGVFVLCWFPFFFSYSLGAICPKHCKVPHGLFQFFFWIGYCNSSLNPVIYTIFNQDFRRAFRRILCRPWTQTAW

The target of assay [6] is T3, 5-hydroxytryptamine receptor 2C (Homo sapiens, UniProt P28335).
T3 sequence (P28335 whole entry): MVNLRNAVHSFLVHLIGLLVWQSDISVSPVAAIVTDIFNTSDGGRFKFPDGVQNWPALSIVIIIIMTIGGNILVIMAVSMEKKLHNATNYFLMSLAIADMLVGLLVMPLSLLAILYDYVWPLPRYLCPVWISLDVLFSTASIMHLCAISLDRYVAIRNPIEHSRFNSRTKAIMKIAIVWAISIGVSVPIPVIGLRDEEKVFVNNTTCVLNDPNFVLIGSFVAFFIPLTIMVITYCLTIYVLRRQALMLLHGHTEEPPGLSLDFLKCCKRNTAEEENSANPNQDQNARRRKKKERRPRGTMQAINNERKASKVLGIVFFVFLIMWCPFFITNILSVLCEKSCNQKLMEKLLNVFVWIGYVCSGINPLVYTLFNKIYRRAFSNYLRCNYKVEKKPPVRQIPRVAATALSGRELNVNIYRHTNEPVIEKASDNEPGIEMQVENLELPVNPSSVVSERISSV

Assay [7] deals with T4, Equilibrative nucleoside transporter 1 (Homo sapiens, UniProt Q99808).
T4 sequence (Q99808 whole entry): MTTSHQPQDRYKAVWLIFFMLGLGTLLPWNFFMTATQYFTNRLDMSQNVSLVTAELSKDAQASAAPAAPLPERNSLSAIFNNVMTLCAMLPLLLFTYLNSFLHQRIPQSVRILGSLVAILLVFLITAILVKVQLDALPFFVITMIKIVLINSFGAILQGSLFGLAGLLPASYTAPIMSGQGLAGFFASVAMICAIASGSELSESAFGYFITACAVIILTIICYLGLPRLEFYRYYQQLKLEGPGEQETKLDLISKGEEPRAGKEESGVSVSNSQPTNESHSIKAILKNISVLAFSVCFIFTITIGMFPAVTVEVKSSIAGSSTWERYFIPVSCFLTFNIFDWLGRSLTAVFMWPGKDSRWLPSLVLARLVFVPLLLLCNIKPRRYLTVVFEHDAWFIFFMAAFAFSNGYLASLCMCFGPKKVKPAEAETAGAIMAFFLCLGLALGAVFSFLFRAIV

In assay [8] the target is T5, Gastrin/cholecystokinin type B receptor (Homo sapiens, UniProt P32239).
T5 sequence (P32239 whole entry): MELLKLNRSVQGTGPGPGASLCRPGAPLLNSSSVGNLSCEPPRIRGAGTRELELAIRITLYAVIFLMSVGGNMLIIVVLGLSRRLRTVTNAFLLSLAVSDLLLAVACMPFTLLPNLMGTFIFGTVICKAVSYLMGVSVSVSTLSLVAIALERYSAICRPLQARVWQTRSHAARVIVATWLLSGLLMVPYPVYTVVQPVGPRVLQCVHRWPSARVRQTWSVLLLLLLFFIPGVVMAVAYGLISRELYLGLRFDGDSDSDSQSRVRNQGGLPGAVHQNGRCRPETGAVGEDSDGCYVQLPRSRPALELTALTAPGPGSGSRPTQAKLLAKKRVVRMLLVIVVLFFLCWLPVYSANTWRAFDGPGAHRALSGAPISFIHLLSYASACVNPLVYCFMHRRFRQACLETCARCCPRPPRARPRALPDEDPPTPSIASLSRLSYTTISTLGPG
Note: assay procedure not described here.

Chain of Sodium-dependent dopamine transporter (Q01959 whole entry): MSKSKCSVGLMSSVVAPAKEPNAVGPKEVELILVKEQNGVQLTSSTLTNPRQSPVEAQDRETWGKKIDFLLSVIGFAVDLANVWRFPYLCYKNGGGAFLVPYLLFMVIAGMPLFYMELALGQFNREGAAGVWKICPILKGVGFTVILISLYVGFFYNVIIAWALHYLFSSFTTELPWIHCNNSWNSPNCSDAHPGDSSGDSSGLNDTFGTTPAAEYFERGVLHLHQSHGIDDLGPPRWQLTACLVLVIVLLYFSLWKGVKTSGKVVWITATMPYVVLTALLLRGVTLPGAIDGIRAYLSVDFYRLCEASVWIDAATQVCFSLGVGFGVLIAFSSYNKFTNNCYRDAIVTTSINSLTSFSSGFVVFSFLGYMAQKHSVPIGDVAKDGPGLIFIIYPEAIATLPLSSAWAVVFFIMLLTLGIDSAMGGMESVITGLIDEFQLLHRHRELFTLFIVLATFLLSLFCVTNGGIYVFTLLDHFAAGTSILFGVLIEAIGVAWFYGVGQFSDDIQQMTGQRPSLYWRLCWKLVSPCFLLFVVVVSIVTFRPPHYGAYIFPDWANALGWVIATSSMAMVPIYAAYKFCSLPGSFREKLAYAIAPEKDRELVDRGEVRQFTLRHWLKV
Chain of Beta-2 adrenergic receptor (P07550 whole entry): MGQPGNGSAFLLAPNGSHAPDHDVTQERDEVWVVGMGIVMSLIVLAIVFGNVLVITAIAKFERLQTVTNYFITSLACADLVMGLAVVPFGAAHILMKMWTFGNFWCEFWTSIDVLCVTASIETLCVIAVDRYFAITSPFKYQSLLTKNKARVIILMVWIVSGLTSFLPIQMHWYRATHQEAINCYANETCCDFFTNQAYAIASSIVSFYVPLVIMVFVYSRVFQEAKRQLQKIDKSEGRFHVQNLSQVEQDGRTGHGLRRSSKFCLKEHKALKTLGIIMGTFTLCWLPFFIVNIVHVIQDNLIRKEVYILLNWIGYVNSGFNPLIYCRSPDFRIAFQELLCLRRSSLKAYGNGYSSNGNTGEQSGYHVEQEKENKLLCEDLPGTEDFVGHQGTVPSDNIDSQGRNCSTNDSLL
Chain of Voltage-dependent L-type calcium channel subunit alpha-1C (P22002 whole entry): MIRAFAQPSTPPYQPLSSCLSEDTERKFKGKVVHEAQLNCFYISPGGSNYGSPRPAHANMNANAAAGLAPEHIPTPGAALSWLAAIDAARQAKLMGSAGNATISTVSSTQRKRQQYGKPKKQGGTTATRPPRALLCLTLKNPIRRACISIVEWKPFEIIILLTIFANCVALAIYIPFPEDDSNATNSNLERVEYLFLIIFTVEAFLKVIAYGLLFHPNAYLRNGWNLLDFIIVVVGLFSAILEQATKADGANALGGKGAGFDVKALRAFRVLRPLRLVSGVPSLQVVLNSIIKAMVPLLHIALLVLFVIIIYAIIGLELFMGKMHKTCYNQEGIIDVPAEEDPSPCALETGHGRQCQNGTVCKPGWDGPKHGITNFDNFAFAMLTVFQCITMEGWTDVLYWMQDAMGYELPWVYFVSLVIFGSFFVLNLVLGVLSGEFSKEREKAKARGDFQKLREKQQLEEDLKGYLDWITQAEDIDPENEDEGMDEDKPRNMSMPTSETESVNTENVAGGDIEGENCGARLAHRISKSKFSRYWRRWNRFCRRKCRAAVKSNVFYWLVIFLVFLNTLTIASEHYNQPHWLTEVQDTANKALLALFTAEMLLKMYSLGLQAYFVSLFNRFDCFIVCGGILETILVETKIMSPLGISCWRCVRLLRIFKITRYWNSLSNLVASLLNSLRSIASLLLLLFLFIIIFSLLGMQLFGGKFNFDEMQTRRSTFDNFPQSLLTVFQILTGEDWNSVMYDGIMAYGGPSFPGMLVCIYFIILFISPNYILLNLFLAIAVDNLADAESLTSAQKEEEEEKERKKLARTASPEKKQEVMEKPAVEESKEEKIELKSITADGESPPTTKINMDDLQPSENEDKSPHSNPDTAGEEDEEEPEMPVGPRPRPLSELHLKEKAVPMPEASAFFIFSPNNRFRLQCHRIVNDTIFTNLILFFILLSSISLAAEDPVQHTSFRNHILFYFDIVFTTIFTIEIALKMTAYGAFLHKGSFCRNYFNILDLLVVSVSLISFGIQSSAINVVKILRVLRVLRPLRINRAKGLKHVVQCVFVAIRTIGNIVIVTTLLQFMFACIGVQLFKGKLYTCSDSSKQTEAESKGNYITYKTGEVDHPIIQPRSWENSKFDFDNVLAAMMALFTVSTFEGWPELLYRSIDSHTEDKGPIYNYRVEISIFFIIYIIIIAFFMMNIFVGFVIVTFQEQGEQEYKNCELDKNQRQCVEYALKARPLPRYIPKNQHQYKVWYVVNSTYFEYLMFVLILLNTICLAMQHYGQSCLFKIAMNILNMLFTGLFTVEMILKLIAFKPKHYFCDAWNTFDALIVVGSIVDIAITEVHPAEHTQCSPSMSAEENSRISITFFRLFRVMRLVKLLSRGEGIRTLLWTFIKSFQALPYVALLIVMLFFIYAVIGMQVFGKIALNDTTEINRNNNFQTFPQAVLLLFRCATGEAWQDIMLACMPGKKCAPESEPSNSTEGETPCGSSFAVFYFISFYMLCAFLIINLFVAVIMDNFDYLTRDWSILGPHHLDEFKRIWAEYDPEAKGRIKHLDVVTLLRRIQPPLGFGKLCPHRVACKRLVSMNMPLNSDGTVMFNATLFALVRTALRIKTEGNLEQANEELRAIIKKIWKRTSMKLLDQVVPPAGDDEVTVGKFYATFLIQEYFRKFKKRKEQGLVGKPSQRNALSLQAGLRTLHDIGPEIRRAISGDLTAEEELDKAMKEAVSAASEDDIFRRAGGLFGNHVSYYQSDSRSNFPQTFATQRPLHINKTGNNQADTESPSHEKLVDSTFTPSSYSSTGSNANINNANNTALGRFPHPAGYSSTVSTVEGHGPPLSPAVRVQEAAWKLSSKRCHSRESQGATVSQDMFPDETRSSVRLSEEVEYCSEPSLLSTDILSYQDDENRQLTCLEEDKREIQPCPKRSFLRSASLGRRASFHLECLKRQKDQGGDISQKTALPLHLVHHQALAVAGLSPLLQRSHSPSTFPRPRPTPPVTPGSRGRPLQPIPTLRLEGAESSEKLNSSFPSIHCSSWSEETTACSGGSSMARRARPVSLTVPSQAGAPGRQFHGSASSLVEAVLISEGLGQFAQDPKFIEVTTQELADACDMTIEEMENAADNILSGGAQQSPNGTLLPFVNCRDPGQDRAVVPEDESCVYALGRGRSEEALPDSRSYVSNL

For orientation: AC50 means the concentration at which the activity in the assay is half-maximal. For `COc1cc(N)cn[n+]1-c1ccccc1` [AMEZINIUM METILSULFATE], the AC50 at Progesterone receptor is more than 30 µM; in assay [1], more than 30 µM; in assay [2], more than 30 µM; in assay [3], 5.7 µM; in [4] it was more than 30 µM; in [5], more than 30 µM. Moreover, the AC50 in [6], in assay [7] and in [8] was more than 30 µM in each case.

For `C=C(c1ccccc1OCc1cccc(Cl)c1)n1ccnc1` [CROCONAZOLE], the AC50 on Progesterone receptor is more than 30 µM; in assay [1], more than 10 µM; in [2], more than 30 µM; in assay [3], more than 30 µM; in [4], 18.8 µM; in assay [5] it was more than 10 µM. Besides, the figures for the AC50 in [6], in assay [7] and in assay [8] were 18 µM, more than 30 µM and more than 30 µM, respectively.

With `C[C@H](N)C(=O)N[C@@H](CCC(N)=O)C(=O)O` [ALANYL GLUTAMINE] (H-Ala-Gln-OH), the AC50 (on Progesterone receptor; in assay [1]; in assay [2]; in assay [3]; in assay [4]; in assay [5]) was more than 30 µM throughout. Further, the AC50 in assay [6], in assay [7] and in assay [8] was more than 30 µM in each case.
